Non-standard residues stand in square brackets, D forms with d. Residues, ends and D or L forms follow the SMILES beside them. *: point of attachment. Decanoyl = CCCCCCCCCC(=O)*
What was measured:
Assay in all cases: Antimicrobial susceptibility of transposon mutant
Type in all cases: cell-based
Parameters in all cases: key: No = no MIC changes of C10-KR8d against the WT and the mutant S. aureus strains measured in 50% TSB
[1] = system: S. aureus USA300 transposon mutant SAUSA300_1898; conditions: mutant SAUSA300_1898 versus WT
Method: (§1) The antimicrobial susceptibility of over 20 MRSA transposon mutants were also tested, based on a transposon library screening, in the presence of LL-37 peptides (Golla, et al. (2020) ACS Infect. Dis., 6:1866-1881). This Nebraska Transposon Mutant Library of S. aureus USA300 consists of 1920 mutants, each with one nonessential gene disabled due to a transposon insertion (Fey, et al. (2013) mBio 4:e00537-12). The correct insertion of the transposon to each Staph mutant had been verified (Golla, et al. (2020) ACS Infect. Dis., 6:1866-1881). Antimicrobial susceptibility to the new peptide C10-KR8d was evaluated in the same manner as MIC assays. Susceptible strains could be inhibited at a peptide concentration lower than the MIC against the wild strain S. aureus JE2.

[2] = system: S. aureus USA300 transposon mutant SAUSA300_1503; conditions: mutant SAUSA300_1503 versus WT
Method: as §1

[3] = system: S. aureus USA300 transposon mutant SAUSA300_1336; conditions: mutant SAUSA300_1336 versus WT
Method: as §1

[4] = system: S. aureus USA300 transposon mutant SAUSA300_1967; conditions: mutant SAUSA300_1967 versus WT
Method: as §1

[5] = system: S. aureus USA300 transposon mutant SAUSA300_0186 (argC); conditions: mutant SAUSA300_0186 argC versus WT
Method: as §1

Measured: Susceptible?

CCCCCCCCCC(=O)N[C@H](CCCCN)C(=O)N[C@H](CCCNC(=N)N)C(=O)N[C@@H](C(=O)N[C@H](Cc1c[nH]c2ccccc12)C(=O)N[C@H](CCC(N)=O)C(=O)N[C@H](CCCNC(=N)N)C(=O)N[C@@H](C(=O)N[C@H](CCCCN)C(N)=O)[C@H](C)CC)[C@H](C)CC [Peptide C10-KR8d] (Decanoyl-[dK][dR][dI][dW][dQ][dR][dI][dK]-NH2)
No: [1] | [2] | [3] | [4] | [5]

— patent publication US20240294572A1, “Antimicrobial Peptides” (priority 2021, published 2024)
